Source: patent US8796001B2, “Metalloenzyme inhibitor compounds” (Viamet Pharmaceuticals, Inc., priority 2011, dated 2014)

Tested on: Puccinia recondita tritici = Puccinia triticina (PUCCRT)
Experiment: Fungicidal activity vs. leaf rust on wheat plants
Assay type: in vivo
Details: wheat (Yuma) sprayed at 50 ppm, inoculated the following day, rated 7-9 days later, read-out: Puccinia Rating (% Disease Control @ 50 ppm)
Excerpt: D. Evaluation of Fungicidal Activity vs. Leaf Rust (Causal Agent Puccinia Recondita Tritici=Puccinia Triticina; Bayer Code PUCCRT)
Each pot contained 3-8 seedlings. These plants were sprayed until wet with the formulated test compounds. The compounds were formulated at 50 ppm in 10 vol. % acetone plus 90 vol. % Triton X water (deionized water 99.99 wt %+0.01 wt % Triton X100), giving a “formulated test compound.” Formulated test compounds were applied to plants using a turn table sprayer fitted with two opposing air atomization nozzles which delivered approximately 1500 L/ha of spray volume. On the following day, the leaves were inoculated with an aqueous spore suspension of Puccinia recondita tritici and the plants were kept in high humidity overnight to permit spores to germinate and infect the leaf. The plants were then transferred to a greenhouse until disease developed on untreated control plants. Disease severity was evaluated 7-9 days later, depending on the speed of disease development.
In each case of Table 3, the Puccinia rating scale is as follows: […]

SMILES | pest or weed control at 50 ppm [%]
OC(Cn1cnnn1)(c1ccc(F)cc1F)C(F)(F)c1ccc(OCc2ccc(Cl)cc2F)cn1 (stereo not shown) [Compound 1, 1-(5-(4-Chloro-2-fluorobenzyloxy)pyridin-2-yl)-2-(2,4-difluorophenyl)-1,1-difluoro-3-(1H-tetrazol-1-yl)propan-2-ol] | 80 to 100
OC(Cn1cnnn1)(c1ccc(F)cc1F)C(F)(F)c1ccc(OCc2ccc(F)cc2F)cn1 (stereo not shown) [Compound 2, 1-(5-(2,4-Difluorobenzyloxy)pyridin-2-yl)-2-(2,4-difluorophenyl)-1,1-difluoro-3-(1H-tetrazol-1-yl)propan-2-ol] | 80 to 100
OC(Cn1cnnn1)(c1ccc(F)cc1F)C(F)(F)c1ccc(OCc2cccc(F)c2)cn1 (stereo not shown) [Compound 3, 2-(2,4-Difluorophenyl)-1,1-difluoro-1-(5-(3-fluorobenzyloxy)pyridin-2-yl)-3-(1H-tetrazol-1-yl)propan-2-ol] | 80 to 100
N#Cc1ccc(Oc2ccc(C(F)(F)C(O)(Cn3cnnn3)c3ccc(F)cc3F)nc2)cc1 (stereo not shown) [Compound 5, 4-(6-(2-(2,4-Difluorophenyl)-1,1-difluoro-2-hydroxy-3-(1H-tetrazol-1-yl)propyl)pyridin-3-yloxy)benzonitrile] | 80 to 100
OC(Cn1cnnn1)(c1ccc(F)cc1F)C(F)(F)c1ccc(Oc2ccc(F)cc2)cn1 (stereo not shown) [Compound 6, 2-(2,4-Difluorophenyl)-1,1-difluoro-1-(5-(4-fluorophenoxy)pyridin-2-yl)-3-(1H-tetrazol-1-yl)propan-2-ol] | 80 to 100
OC(Cn1cnnn1)(c1ccc(F)cc1F)C(F)(F)c1ccc(Oc2ccc(Cl)cc2)cn1 (stereo not shown) [Compound 7, 1-(5-(4-Chlorophenoxy)pyridin-2-yl)-2-(2,4-difluorophenyl)-1,1-difluoro-3-(1H-tetrazol-1-yl)propan-2-ol] | 80 to 100
COc1ccc(C(F)(F)C(O)(Cn2cnnn2)c2ccc(F)cc2F)nc1 (stereo not shown) [Compound 8, 2-(2,4-Difluorophenyl)-1,1-difluoro-1-(5-methoxypyridin-2-yl)-3-(1H-tetrazol-1-yl)propan-2-ol] | 80 to 100
N#Cc1ccc(COc2ccc(C(F)(F)C(O)(Cn3cnnn3)c3ccc(F)cc3F)nc2)cc1 (stereo not shown) [Compound 9, 4-(((6-(2-(2,4-Difluorophenyl)-1,1-difluoro-2-hydroxy-3-(1H-tetrazol-1-yl)propyl)pyridin-3-yl)oxy)methyl)benzonitrile] | 80 to 100
N#Cc1ccc(COc2ccc(C(F)(F)C(O)(Cn3cnnn3)c3ccc(F)cc3F)nc2)cc1F (stereo not shown) [Compound 10, 4-(((6-(2-(2,4-Difluorophenyl)-1,1-difluoro-2-hydroxy-3-(1H-tetrazol-1-yl)propyl)pyridin-3-yl)oxy)methyl)-2-fluorobenzonitrile] | 80 to 100
OC(Cn1cnnn1)(c1ccc(F)cc1F)C(F)(F)c1ccc(Oc2ccccc2)cn1 (stereo not shown) [Compound 11, 2-(2,4-Difluorophenyl)-1,1-difluoro-1-(5-phenoxypyridin-2-yl)-3-(1H-tetrazol-1-yl)propan-2-ol] | 80 to 100
OC(Cn1cnnn1)(c1ccc(F)cc1F)C(F)(F)c1ccc(OCC(F)(F)F)cn1 (stereo not shown) [Compound 12, 2-(2,4-Difluorophenyl)-1,1-difluoro-3-(1H-tetrazol-1-yl)-1-(5-(2,2,2-trifluoroethoxy)pyridin-2-yl)propan-2-ol] | 80 to 100
N#Cc1ccc(CSc2ccc(C(F)(F)C(O)(Cn3cnnn3)c3ccc(F)cc3F)nc2)c(F)c1 (stereo not shown) [Compound 15, 4-(((6-(2-(2,4-Difluorophenyl)-1,1-difluoro-2-hydroxy-3-(1H-tetrazol-1-yl)propyl)pyridin-3-yl)thio)methyl)-3-fluorobenzonitrile] | 40 to 59
N#Cc1ccc(Oc2ccc(C(F)(F)C(O)(Cn3cnnn3)c3ccc(F)cc3F)nc2)cc1F (stereo not shown) [Compound 17, 4-((6-(2-(2,4-Difluorophenyl)-1,1-difluoro-2-hydroxy-3-(1H-tetrazol-1-yl)propyl)pyridin-3-yl)oxy)-2-fluorobenzonitrile] | 80 to 100
OC(Cn1cnnn1)(c1ccc(F)cc1F)C(F)(F)c1ccc(OCc2ccc(OC(F)(F)F)cc2)cn1 (stereo not shown) [Compound 21, 2-(2,4-Difluorophenyl)-1,1-difluoro-3-(1H-tetrazol-1-yl)-1-(5-((4-(trifluoromethoxy)benzyl)oxy)pyridin-2-yl)propan-2-ol] | 80 to 100
OC(Cn1cnnn1)(c1ccc(F)cc1F)C(F)(F)c1ccc(OCc2ccc(C(F)(F)F)cc2)cn1 (stereo not shown) [Compound 22, 2-(2,4-Difluorophenyl)-1,1-difluoro-3-(1H-tetrazol-1-yl)-1-(5-((4-(trifluoromethyl)benzyl)oxy)pyridin-2-yl)propan-2-ol] | 80 to 100
OC(Cn1cnnn1)(c1ccc(F)cc1F)C(F)(F)c1ccc(OCc2cccc(F)c2F)cn1 (stereo not shown) [Compound 23, 1-(5-((2,3-Difluorobenzyl)oxy)pyridin-2-yl)-2-(2,4-difluorophenyl)-1,1-difluoro-3-(1H-tetrazol-1-yl)propan-2-ol] | 80 to 100

SMILES | pest or weed control at 50 ppm [%]
OC(Cn1cnnn1)(c1ccc(F)cc1F)C(F)(F)c1ccc(OCc2ccc(C(F)(F)F)cc2F)cn1 (stereo not shown) [Compound 24, 2-(2,4-Difluorophenyl)-1,1-difluoro-1-(5-((2-fluoro-4-(trifluoromethyl)benzyl)oxy)pyridin-2-yl)-3-(1H-tetrazol-1-yl)propan-2-ol] | 80 to 100
OC(Cn1cnnn1)(c1ccc(F)cc1F)C(F)(F)c1ccc(OCc2cccc(C(F)(F)F)c2)cn1 (stereo not shown) [Compound 26, 2-(2,4-Difluorophenyl)-1,1-difluoro-3-(1H-tetrazol-1-yl)-1-(5-((3-(trifluoromethyl)benzyl)oxy)pyridin-2-yl)propan-2-ol] | 80 to 100
OC(Cn1cnnn1)(c1ccc(F)cc1F)C(F)(F)c1ccc(OCc2ccc(Cl)c(F)c2)cn1 (stereo not shown) [Compound 27, 1-(5-((4-Chloro-3-fluorobenzyl)oxy)pyridin-2-yl)-2-(2,4-difluorophenyl)-1,1-difluoro-3-(1H-tetrazol-1-yl)propan-2-ol] | 80 to 100
OC(Cn1cnnn1)(c1ccc(F)cc1F)C(F)(F)c1ccc(OCc2ccc(F)c(F)c2)cn1 (stereo not shown) [Compound 28, 1-(5-((3,4-Difluorobenzyl)oxy)pyridin-2-yl)-2-(2,4-difluorophenyl)-1,1-difluoro-3-(1H-tetrazol-1-yl)propan-2-ol] | 80 to 100
COc1cccc(COc2ccc(C(F)(F)C(O)(Cn3cnnn3)c3ccc(F)cc3F)nc2)c1 (stereo not shown) [Compound 34, 2-(2,4-Difluorophenyl)-1,1-difluoro-1-(5-((3-methoxybenzyl)oxy)pyridin-2-yl)-3-(1H-tetrazol-1-yl)propan-2-ol] | 80 to 100
OC(Cn1cnnn1)(c1ccc(F)cc1F)C(F)(F)c1ccc(OCc2cc(F)cc(F)c2)cn1 (stereo not shown) [Compound 35, 1-(5-((3,5-Difluorobenzyl)oxy)pyridin-2-yl)-2-(2,4-difluorophenyl)-1,1-difluoro-3-(1H-tetrazol-1-yl)propan-2-ol] | 80 to 100
OC(Cn1cnnn1)(c1ccc(F)cc1F)C(F)(F)c1ccc(OCc2ccccn2)cn1 (stereo not shown) [Compound 37, 2-(2,4-Difluorophenyl)-1,1-difluoro-1-(5-(pyridin-2-ylmethoxy)pyridin-2-yl)-3-(1H-tetrazol-1-yl)propan-2-ol] | 80 to 100
OC(Cn1cnnn1)(c1ccc(F)cc1F)C(F)(F)c1ccc(OCC2CC2)cn1 (stereo not shown) [Compound 39, 1-(5-(Cyclopropylmethoxy)pyridin-2-yl)-2-(2,4-difluorophenyl)-1,1-difluoro-3-(1H-tetrazol-1-yl)propan-2-ol] | 80 to 100
COc1ccc(COc2ccc(C(F)(F)C(O)(Cn3cnnn3)c3ccc(F)cc3F)nc2)cc1 (stereo not shown) [Compound 41, 2-(2,4-Difluorophenyl)-1,1-difluoro-1-(5-((4-methoxybenzyl)oxy)pyridin-2-yl)-3-(1H-tetrazol-1-yl)propan-2-ol] | 80 to 100
CC(C)Oc1ccc(C(F)(F)C(O)(Cn2cnnn2)c2ccc(F)cc2F)nc1 (stereo not shown) [Compound 42, 2-(2,4-Difluorophenyl)-1,1-difluoro-1-(5-isopropoxypyridin-2-yl)-3-(1H-tetrazol-1-yl)propan-2-ol] | 80 to 100
CC(C)COc1ccc(C(F)(F)C(O)(Cn2cnnn2)c2ccc(F)cc2F)nc1 (stereo not shown) [Compound 43, 2-(2,4-Difluorophenyl)-1,1-difluoro-1-(5-isobutoxypyridin-2-yl)-3-(1H-tetrazol-1-yl)propan-2-ol] | 80 to 100
OC(Cn1cncn1)(c1ccc(F)cc1F)C(F)(F)c1ccc(OCc2cccc(F)c2F)cn1 (stereo not shown) [Compound 45, 1-(5-((2,3-Difluorobenzyl)oxy)pyridin-2-yl)-2-(2,4-difluorophenyl)-1,1-difluoro-3-(1H-1,2,4-triazol-1-yl)propan-2-ol] | 80 to 100
OC(Cn1cnnn1)(c1ccc(F)cc1F)C(F)(F)c1ccc(OCc2ccccc2F)cn1 (stereo not shown) [Compound 46, 2-(2,4-Difluorophenyl)-1,1-difluoro-1-(5-((2-fluorobenzyl)oxy)pyridin-2-yl)-3-(1H-tetrazol-1-yl)propan-2-ol] | 80 to 100
CC(Oc1ccc(C(F)(F)C(O)(Cn2cnnn2)c2ccc(F)cc2F)nc1)C(F)(F)F (stereo not shown) [Compound 47, 2-(2,4-Difluorophenyl)-1,1-difluoro-3-(1H-tetrazol-1-yl)-1-(5-((1,1,1-trifluoropropan-2-yl)oxy)pyridin-2-yl)propan-2-ol] | 80 to 100
OC(Cn1cnnn1)(c1ccc(F)cc1F)C(F)(F)c1ccc(OCc2cccs2)cn1 (stereo not shown) [Compound 49, 2-(2,4-Difluorophenyl)-1,1-difluoro-3-(1H-tetrazol-1-yl)-1-(5-(thiophen-2-ylmethoxy)pyridin-2-yl)propan-2-ol] | 80 to 100
